Experimental data reported in patent US5670538A, “Use of prodelphinidins for obtaining medicaments intended for the treatment of arthrosis” (Laboratoires Dolisos, priority 1992, dated 1997).

Assays:
[1] = tested on: human articular chondrocytes; assay: Radioimmunoassay of type II collagen (coll. II) produced in tridimensional culture of human chondrocytes; format: cell-based; settings: for activity at 1 µg/mL / activity at 10 µg/mL / activity at 100 µg/mL: Homo sapiens, Chondrocyte, 288 h, control = 100, read-out: Cumulative release of coll.II over 12 days, %; for Type II collagen in the culture media, effect in words / Collagen II in the clusters, effect in words: 10 and 100 μg/ml; for Coll. II in the clusters / Collagen II in the clusters, effect in words: experiment 397
Source text: The model used for testing the proanthocyanidols, namely the tridimensional culture of human chondrocytes allows chondrorepair to be quantified by the production of matrix substances: type II collagen, proteoglycans, and chondroresorption by the reduction in the levels of prostaglandin E2 and of OH° and O°2 type free radicals produced.
1. Tridimensional culture of human chondrocytes
The technique used has been described in detail (Bassleer et al., 1986).
Briefly, human articular chondrocytes are cultivated in DMEM (Dulbecco's Modification of Eagle's Medium--ICN--Gand, Belgium) with either Ultroser G 1% (GIBCO, Gand, Belgium) or 10% of foetal calf serum (ICN--Gand--Belgium), and 50 μg of ascorbic acid/ml added to it. The cartilage originates from the apparently normal zone of heads of human femur suffering from arthrosis, immediately after an operation carried out to insert a total hip prosthesis; it can also originate from the head of a healthy femur, but which has undergone a traumatism and has had to be replaced. This cartilage is then digested by clostridial collagenase 1 mg/ml (Boehringer-Mannheim, Germany) in a buffer (NaCl 120 mM, CaCl2 1 mM, KCl 5 mM, KH2 PO4 1 mM, NaHCO3 25 mM, glucose 2 mM and Hepes 30 mM, pH 7.4) for 24 hours. After 6 successive washings and centrifugations, the chondrocytes, isolated from their matrix, are cultured in flasks (10^6 cells/2 ml of culture medium) placed on a gyrator (10 rpm). The cultures are kept at 37° C. in an atmosphere of air 95%-CO2 5% (Bassleer et al., 1986). Cultivated under these conditions, after 4 to 5 days the chondrocytes form a tridimensional cluster in each flask. These clusters, which at first have a flocculent appearance, then tend to condense during the culture. After two weeks, their diameter is, in general, from 1 to 2 mm.
The fresh weight of the clusters increases with the duration of the culture, above all during the few first days.
3. Radioimmunoassay of type II collagen (coll. II)
The method for the radioimmunoassay of coll. II has been described in detail (Henrotin et al., 1990). The coll. II is extracted from human articular cartilage according to the technique described by Herbage et al. (1977). The antiserum against coll. II was obtained from rabbits according to the technique of Vaitukaitis et al. (1971).
The assay is carried out by sequential saturation. In the first instance, the radioimmunoassay is carried out in a 0.3 ml volume consisting of 0.2 ml of incubation buffer (PBS-50 mM PO4, 300 mM NaCl, 5 g/l BSA (W/V), 6.7 mM sodium azide, pH 7.4) containing the reference coll. II (0.5 to 500 ng) or the sample to be assayed and 0.1 ml of anti-coll. II antiserum from guinea pigs diluted to 1/5000 (24 hours at 4° C.). In the second instance, 0.1 ml of ^125 I-coll. II tracer labelled according to the iodogenic technique (Salacynski et al., 1979 and diluted so as to obtain 20,000 cpm/0.1 ml) is added. After 24 hours at 4° C., the collagen-antibody complexes are separated from the free radioactive coll. II by the double antibody system (Franchimont et al. 1983). Sequential saturation gives a sensitivity of 3 ng/tube. The accuracy of the method is 10%. The coefficients of the intra- and inter assay variation are 10% and 20% respectively.
The assay is specific to human articular type II collagen.
No cross reaction is obtained with bovine collagen of type I, III or IV.
The culture media are stored at -20° C. in the presence of enzymatic inhibitors (Oegema et al., 1975). These media are assayed by the radio immunological method without any treatment beforehand. The chondrocyte clusters are washed and dissociated with ultrasonics according to the method described for the assay of the PGs. After centrifugation (1500 rpm, 10 minutes), the residue is extracted using 500 mM acetic acid under agitation for 24 hours at 4° C. The supernatant of the homogenate and the extract of the residue are mixed together and assayed after equilibration at pH 7.4 using 4M NaOH.
The recovery of coll. […]

[2] = Production of OH° hydroxyl radicals (gamma irradiation, KMB substrate, ethylene by gas chromatography); format: biochemical; settings: for % inhibition of the production of hydroxyl radicals: Substrate: KMB, relative to the controls; for Production of free radicals from KMB, effect in words: Table 22
Description: 8. Production of OH° hydroxyl radicals
The products are dissolved in 10 ml flasks at the required concentration in phosphate buffer: 6.6.10^-2 M, pH 7.4 in the presence of alpha keto methiolbutyric acid (10^-3 M: KMB). After the flasks have been hermetically sealed, the samples are irradiated with gamma rays provided by a ^137 Cs source.
The OH° radicals produced by the gamma radiation react with the KMB to produce the ethylene detected by a gas chromatograph. The height of the ethylene peak is proportional to the quantity of free radicals formed in the medium (Weis et al., 1978).

[3] = 1% Ultroser G, culture time 0-4 days, 1 μg/ml
[4] = 1% Ultroser G, culture time 0-4 days, 10 μg/ml
[5] = 1% Ultroser G, culture time 0-4 days, 100 μg/ml
[6] = 1% Ultroser G, culture time 4-8 days, 1 μg/ml
[7] = 1% Ultroser G, culture time 4-8 days, 10 μg/ml
[8] = 1% Ultroser G, culture time 4-8 days, 100 μg/ml
[9] = 1% Ultroser G, culture time 8-12 days, 1 μg/ml
[10] = 1% Ultroser G, culture time 8-12 days, 10 μg/ml
[11] = 1% Ultroser G, culture time 8-12 days, 100 μg/ml
[12] = foetal calf serum, Table 18, 0-4 days, 10 μg/ml
[13] = foetal calf serum, Table 18, 0-4 days, 100 μg/ml
[14] = foetal calf serum, Table 18, 4-8 days, 10 μg/ml
[15] = foetal calf serum, Table 18, 4-8 days, 100 μg/ml
[16] = foetal calf serum, Table 19, 0-4 days, 10 μg/ml
[17] = foetal calf serum, Table 19, 0-4 days, 100 μg/ml
[18] = foetal calf serum, Table 19, 4-8 days, 10 μg/ml
[19] = foetal calf serum, Table 19, 4-8 days, 100 μg/ml
[20] = foetal calf serum, 4-8 days, 10 μg/ml
[21] = foetal calf serum, 4-8 days, 100 μg/ml

| SMILES | Average concentrations (m ± SD) of type II collagen in the clusters of chondrocytes at the end of 12 days of culture ([1]; 1% Ultroser G, 1 μg/ml) | Cumulative release of coll.II over 12 days, Abs ([1]; 1% Ultroser G, 1 μg/ml) [ng/μg DNA/12 days] | Average concentrations (m ± SD) of type II collagen in the clusters of chondrocytes at the end of 12 days of culture ([1]; 1% Ultroser G, 10 μg/ml) | Cumulative release of coll.II over 12 days, Abs ([1]; 1% Ultroser G, 10 μg/ml) [ng/μg DNA/12 days] | Average concentrations (m ± SD) of type II collagen in the clusters of chondrocytes at the end of 12 days of culture ([1]; 1% Ultroser G, 100 μg/ml) | Cumulative release of coll.II over 12 days, Abs ([1]; 1% Ultroser G, 100 μg/ml) [ng/μg DNA/12 days] | Coll. II released in the culture medium [1, 3] [ng/μg DNA/96 h] | Coll. II released in the culture medium [1, 4] [ng/μg DNA/96 h] | Coll. II released in the culture medium [1, 5] [ng/μg DNA/96 h] | Coll. II released in the culture medium [1, 6] [ng/μg DNA/96 h] | Coll. II released in the culture medium [1, 7] [ng/μg DNA/96 h] | Coll. II released in the culture medium [1, 8] [ng/μg DNA/96 h] | Coll. II released in the culture medium [1, 9] [ng/μg DNA/96 h] | Coll. II released in the culture medium [1, 10] [ng/μg DNA/96 h] | Coll. II released in the culture medium [1, 11] [ng/μg DNA/96 h] | activity at 1 µg/mL ([1]; 1% Ultroser G, 1 μg/ml) [%] | activity at 10 µg/mL ([1]; 1% Ultroser G, 10 μg/ml) [%] | activity at 100 µg/mL ([1]; 1% Ultroser G, 100 μg/ml) [%] | Type II collagen in the culture media, effect in words ([1]; foetal calf serum) | Coll. II released in the culture medium [1, 12] [ng/μg DNA/96 H] | further results |
| --- | --- | --- | --- | --- | --- | --- | --- | --- | --- | --- | --- | --- | --- | --- | --- | --- | --- | --- | --- | --- | --- |
| Oc1cc(O)c2c(c1)O[C@H](c1cc(O)c(O)c(O)c1)[C@@H](O)[C@@H]2c1c(O)cc(O)c2c1O[C@H](c1cc(O)c(O)c(O)c1)[C@H](O)C2 [Substance Ia, GC-(4 alpha→8) EGC] | 105 ± 13 ng per μg of DNA | 482 | 165 ± 21 ng per μg of DNA | 787 | 175 ± 19 ng per μg of DNA | 962 | 233 ± 25 | 301 ± 52 | 462 ± 51 | 147 ± 19 | 259 ± 22 | 311 ± 41 | 102.2 ± 10.96 | 147 ± 21 | 109 ± 23 | 102 | 166 | 202 | increases | 44.3 ± 2.30 | Coll. II released in the culture medium [1, 13]: 77.0 ± 15.58 ng/μg DNA/96 H; Coll. II released in the culture medium [1, 14]: 34.0 ± 3.11 ng/μg DNA/96 H; Coll. II released in the culture medium [1, 15]: 47.2 ± 5.19 ng/μg DNA/96 H; Coll. II released in the culture medium [1, 16]: 37.4 ± 1.98 ng/μg DNA/96 H; Coll. II released in the culture medium [1, 17]: 44.2 ± 11.6 ng/μg DNA/96 H; Coll. II released in the culture medium [1, 18]: 25.3 ± 2.20 ng/μg DNA/96 H; Coll. II released in the culture medium [1, 19]: 38.2 ± 5.71 ng/μg DNA/96 H; Coll. II in the clusters [1, 20]: 78.8 ± 10.5 ng/μg DNA; Coll. II in the clusters [1, 21]: 114.7 ± 10.55 ng/μg DNA; Collagen II in the clusters, effect in words ([1]; foetal calf serum): An increase in collagen II is observed; % inhibition of the production of hydroxyl radicals ([2]; 10^-3 M): 78%; % inhibition of the production of hydroxyl radicals ([2]; 10^-4 M): 41%; % inhibition of the production of hydroxyl radicals ([2]; 10^-5 M): 22%; Production of free radicals from KMB, effect in words [2]: significantly inhibits |
| Oc1cc(O)c2c(c1)O[C@H](c1cc(O)c(O)c(O)c1)[C@@H](O)[C@@H]2c1c(O)cc(O)c2c1O[C@H](c1cc(O)c(O)c(O)c1)[C@@H](O)C2 [Substance Ib, GC-(4 alpha→8) GC] | 98 ± 9 ng per μg of DNA | 394 | 121 ± 10 ng per μg of DNA | 572 | 158 ± 16 ng per μg of DNA | 728 | 222 ± 26 | 322 ± 33 | 392 ± 46 | 112 ± 19 | 158 ± 14 | 190 ± 22 | 59.9 ± 0.6 | 91.7 ± 6.1 | 137.7 ± 13.4 | 107 | 155 | 197 | increases | 41.4 ± 0.51 | Coll. II released in the culture medium [1, 13]: 81.1 ± 20.2 ng/μg DNA/96 H; Coll. II released in the culture medium [1, 14]: 33.3 ± 4.61 ng/μg DNA/96 H; Coll. II released in the culture medium [1, 15]: 55.0 ± 17.21 ng/μg DNA/96 H; Coll. II released in the culture medium [1, 16]: 38.2 ± 2.60 ng/μg DNA/96 H; Coll. II released in the culture medium [1, 17]: 56.3 ± 12.41 ng/μg DNA/96 H; Coll. II released in the culture medium [1, 18]: 29.6 ± 3.44 ng/μg DNA/96 H; Coll. II released in the culture medium [1, 19]: 46.3 ± 2.61 ng/μg DNA/96 H; Coll. II in the clusters [1, 20]: 81.6 ± 16.00 ng/μg DNA; Coll. II in the clusters [1, 21]: 113.2 ± 18.25 ng/μg DNA; Collagen II in the clusters, effect in words ([1]; foetal calf serum): An increase in collagen II is observed; % inhibition of the production of hydroxyl radicals ([2]; 10^-3 M): 80%; % inhibition of the production of hydroxyl radicals ([2]; 10^-4 M): 46%; % inhibition of the production of hydroxyl radicals ([2]; 10^-5 M): 25%; Production of free radicals from KMB, effect in words [2]: significantly inhibits |
